Results published in publication PMC7115498 (European Journal of Medicinal Chemistry, 2009).
Values after ≈ are worked out from the molar mass of the structure shown. Where two headings read alike, the source gives them in different places.

Legend:
K. pneumoniae = test: Antibacterial microdilution broth susceptibility test; assay type: cell-based, Klebsiella pneumoniae; conditions: Gram-negative K. pneumoniae; 37 °C, 24 h, no turbidity
E. coli = test: as above; assay type: cell-based, Escherichia coli; conditions: Gram-negative E. coli, 37 °C, 24 h, no turbidity
S. viridans = test: as above; assay type: cell-based, Streptococcus viridans; conditions: Gram-positive S. viridans; 37 °C, 24 h, no turbidity
P. miraleilis = test: as above; assay type: cell-based, Proteus mirabeilis; conditions: Gram-negative P. miraleilis; 37 °C, 24 h, no turbidity
Coxsakie virus B4 = test: organism not typed; assay type: cell-based; conditions: Vero
Reovirus-1 = test: organism not typed; assay type: cell-based; conditions: Vero
Parainfluenza-3 virus = test: organism not typed; assay type: cell-based; conditions: Vero
[1] = Partition coefficient by stir-flask method, octanol-water system; conditions: octanol / 0.1 NaOH solution, 25 °C, UV
[2] = test system: Gram-positive cocci and Gram-negative bacilli; test: Antibacterial activity over all strains tested; assay type: cell-based; conditions: in vitro
[3] = test system: Herpes simplex virus-1TK- KOS ACV; test: organism not typed; assay type: cell-based; conditions: HEL
MT-4 cells = conditions: MTT method
HIV-1 IIIB strain = assay type: cell-based; conditions: for IC50: MTT method, Exp_nr P3.4401 and P3.4406
HIV-1 ROD strain = assay type: cell-based; conditions: for IC50: MTT method, Exp_nr P3.4402 and P3.4407
HPV = conditions: ref Singh et al. unpublished results; cited from earlier work
in vitro [4] = conditions: African green monkey, CC50, Vero cells, MTS assay
in vitro [5] = conditions: human, CC50, MT-4 cells, MTT method; IIIB experiments P3.4401 and P3.4406
Feline herpes virus = assay type: cell-based; conditions: virus O, CRFK cells, MTS assay
[6] = test system: Feline corona virus (FIPV); assay type: cell-based; conditions: virus N, CRFK cells, MTS assay
CRFK cells = conditions: MTS assay
[7] = ROD experiments P3.4402 and P3.4407

Row | Molecule | EC50 (Coxsakie virus B4) [nM] | EC50 (Reovirus-1) [nM] | EC50 (Parainfluenza-3 virus) [nM] | EC50 [3] [nM] | CC50 (MT-4 cells; [7]) [nM] | IC50 (HIV-1 ROD strain; HIV-1 ROD, MT-4 cells) [nM] | further results
1 | Gentamycin sulfate | – | – | – | – | – | – | MIC (K. pneumoniae): >1.73 µM; MIC (E. coli): >1.73 µM; MIC (S. viridans): >1.73 µM; MIC (P. miraleilis): >1.73 µM
2 | Nc1ncnc2c1ncn2C[C@H](O)CO [(S)-DHPA, reference compound] | > 250000 | > 250000 | > 250000 | – | – | – | –
3 | COc1cc(/C=C/C(=O)CC(=O)/C=C/c2ccc(O)c(OC)c2)ccc1O [Curcumin, 1,7-bis(4-hydroxy-3-methoxyphenyl)-1,6-heptadiene-3,5-dione, reference compound] | > 10 | > 10 | > 10 | – | – | – | P (partition coefficient), stir-flask method [1]: 1.70 × 10^2; MIC range over all strains [2]: 1.23 to 2.47 µM
4 | COc1cc(/C=C/C(=O)CC(=O)/C=C/c2ccc(OCCOC(=O)CCC(NC(=O)c3ccc(NCc4cnc5nc(N)[nH]c(=O)c5n4)cc3)C(=O)O)c(OC)c2)ccc1O (stereo not drawn) [Compound 10, 1-(4-Hydroxy-3-methoxyphenyl)-7-(4-O-ethyl-O-folyl-3-methoxyphenyl)-1,6-heptadiene-3,5-dione] | > 119 | > 119 | > 119 | > 119 | 88 | > 88 | CC50 (MT-4 cells; IIIB experiments P3.4401 and P3.4406): 58 nM; SI (Selectivity index: CC50/IC50 ratio) (HIV-1 IIIB strain; HIV-1 IIIB, MT-4 cells): <1; IC50 (HIV-1 IIIB strain; HIV-1 IIIB, MT-4 cells): > 58 nM; SI (Selectivity index: CC50/IC50 ratio) (HIV-1 ROD strain; HIV-1 ROD, MT-4 cells): <1
5 | CCCCCCCCCCCCCCCC(=O)Oc1ccc(/C=C/C(=O)CC(=O)/C=C/c2ccc(OC(=O)CCCCCCCCCCCCCCC)c(OC)c2)cc1OC [Compound 4, 1,7-Bis-[(4,4-di-O-pamitoyl)3-methoxyphenyl]-1,6-heptadiene-3,5-dione] | – | – | – | – | – | – | MIC (E. coli; Escherichia coli): 0.591 µM (≈ 0.5 µg/mL)
6 | COc1cc(/C=C/C(=O)C(CCOC(=O)CCC(NC(=O)c2ccc(NCc3cnc4nc(N)[nH]c(=O)c4n3)cc2)C(=O)O)C(=O)/C=C/c2ccc(O)c(OC)c2)ccc1O (stereo not drawn) [Compound 8, 1,7-Bis-[(4-hydroxy-3-methoxyphenyl)]-1,6-heptadiene-C^4-ethyl-O-folyl-3,5-dione] | > 11 | > 11 | > 11 | > 11 | 62 | > 62 | –
7 | CCCCCCCCCC(=O)Oc1ccc(/C=C/C(=O)CC(=O)/C=C/c2ccc(OC(=O)CCCCCCCCC)c(OC)c2)cc1OC [Compound 3, 1,7-Bis-[(4,4-di-O-decanoyl)3-methoxyphenyl]-1,6-heptadiene-3,5-dione] | – | – | – | – | – | – | P (partition coefficient), stir-flask method [1]: 1.69 × 10^8; MIC (E. coli; Escherichia coli): 0.369 µM (≈ 0.25 µg/mL)
8 | COc1cc(/C=C/C(=O)CC(=O)/C=C/c2ccc(OC(=O)CCC(NC(=O)c3ccc(NCc4cnc5nc(N)[nH]c(=O)c5n4)cc3)C(=O)O)c(OC)c2)ccc1OC(=O)CCC(NC(=O)c1ccc(NCc2cnc3nc(N)[nH]c(=O)c3n2)cc1)C(=O)O (stereo not drawn) [Compound 6, 1,7-Bis-[(4,4-di-O-bis-(γ,γ)-folyl)3-methoxyphenyl]-1,6-heptadiene-3,5-dione] | > 82 | > 82 | > 82 | > 82 | 50 | > 50 | Activity against HPV causing cervical cancer (HPV): very active; IC50 (HIV-1 IIIB strain; HIV-1 IIIB, MT-4 cells): > 46 nM
9 | NC(=O)c1ncn([C@@H]2O[C@H](CO)[C@@H](O)[C@H]2O)n1 [Ribavirin] | > 250000 | 250000 | – | – | – | – | CC50 (in vitro [4]; column J (Reovirus-1)): > 250000 nM; CC50 (in vitro [4]; column K (Sindbis virus)): > 250000 nM; CC50 (in vitro [4]; column L (Coxsakie virus B4)): > 250000 nM; CC50 (in vitro [4]; column M (Punta toro virus)): > 250000 nM
10 | COc1cc(/C=C/C(=O)CC(=O)/C=C/c2ccc(OC(=O)[C@H](Cc3ccccc3)NC(=O)[C@@H](N)Cc3c[nH]c4ccccc34)c(OC)c2)ccc1OC(=O)[C@H](Cc1ccccc1)NC(=O)[C@@H](N)Cc1c[nH]c2ccccc12 [Compound 2, 1,7-Bis-[(4,4-di-O-tryptophanylphenylalanine)3-methoxyphenyl]-1,6-heptadiene-3,5-dione] | > 19 | > 19 | > 38 | > 38 | 103 | > 103 | CC50 (in vitro [5]): 94 nM; P (partition coefficient), stir-flask method [1]: 5.50 × 10^2; SI (Selectivity index: CC50/IC50 ratio) (HIV-1 IIIB strain): <1; IC50 (HIV-1 IIIB strain; HIV-1 IIIB, MT-4 cells): > 93 nM; SI (Selectivity index: CC50/IC50 ratio) (HIV-1 ROD strain): <1
11 | UDA: reference in Table 2 (CRFK), not defined in the paper; presumably a plant lectin (protein, UniProt P11218 24-372, looked up) Lectin/endochitinase 1: QRCGSQGGGGTCPALWCCSIWGWCGDSEPYCGRTCENKCWSGERSDHRCGAAVGNPPCGQDRCCSVHGWCGGGNDYCSGSKCQYRCSSSVRGPRVALSGNSTANSIGNVVVTEPLFDQMFSHRKDCPSQGFYSYHSFLVAAESFPAFGTIGDVATRKREVAAFLAHISQATSGERSDVENPHAWGLCHINTTTVTENDFCTSSDWPCAAGKKYSPRGPIQLTHNFNYGLAGQAIGEDLIQNPDLVEKDPIISFKTALWFWMSQHDNKPSCHDIVLNANSAANRIPNKGVIGNIISRAFGHDDFAVRSSSIGFYKRYCDMLGVSYGHDLKYWFDNTPSSEFQRIQMRVAA | – | – | – | – | – | – | EC50 (Feline herpes virus): 2900 nM; EC50 [6]: 1300 nM; CC50 (CRFK cells; column N (Feline corona virus FIPV)): > 100000 nM; CC50 (CRFK cells; column O (Feline herpes virus)): > 100000 nM
